The target of the series is T1, TLR8 (Homo sapiens, UniProt Q9NR97).
T1 sequence (Q9NR97 27-1041): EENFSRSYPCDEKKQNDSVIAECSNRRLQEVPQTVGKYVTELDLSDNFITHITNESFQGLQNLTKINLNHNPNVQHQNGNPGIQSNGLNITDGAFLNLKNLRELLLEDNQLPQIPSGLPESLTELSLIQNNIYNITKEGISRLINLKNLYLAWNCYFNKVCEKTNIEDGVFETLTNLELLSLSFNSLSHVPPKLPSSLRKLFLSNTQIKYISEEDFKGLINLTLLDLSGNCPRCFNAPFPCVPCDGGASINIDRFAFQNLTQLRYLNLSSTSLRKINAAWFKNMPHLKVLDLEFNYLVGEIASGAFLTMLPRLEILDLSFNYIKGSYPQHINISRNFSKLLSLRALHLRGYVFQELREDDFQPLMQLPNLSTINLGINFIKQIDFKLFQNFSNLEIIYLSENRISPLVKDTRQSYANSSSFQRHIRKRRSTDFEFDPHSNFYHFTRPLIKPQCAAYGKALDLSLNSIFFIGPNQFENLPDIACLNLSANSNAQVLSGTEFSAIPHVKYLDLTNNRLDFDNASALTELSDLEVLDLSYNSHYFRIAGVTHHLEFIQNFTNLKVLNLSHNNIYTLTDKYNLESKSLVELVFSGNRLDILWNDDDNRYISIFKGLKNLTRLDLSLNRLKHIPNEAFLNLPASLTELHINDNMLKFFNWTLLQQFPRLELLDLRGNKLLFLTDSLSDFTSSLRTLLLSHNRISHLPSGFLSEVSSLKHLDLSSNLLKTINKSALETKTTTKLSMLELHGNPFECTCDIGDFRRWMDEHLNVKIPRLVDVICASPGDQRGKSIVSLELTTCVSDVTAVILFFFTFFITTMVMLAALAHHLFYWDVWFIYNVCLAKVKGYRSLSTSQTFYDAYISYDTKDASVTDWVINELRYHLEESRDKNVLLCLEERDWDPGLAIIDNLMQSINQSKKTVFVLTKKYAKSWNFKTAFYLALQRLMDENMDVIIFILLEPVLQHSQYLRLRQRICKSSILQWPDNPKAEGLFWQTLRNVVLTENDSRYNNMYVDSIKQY
As to the kind of experiment: R848-driven IP-10 production in THP-1 cells (TLR8). The following applies: R848 7 h; for TLR8 potentiation in THP-1, short 2′OMe oligos (IP-10; in words): oligos overnight; for effect of 3-mer 2′OMe oligos on R848-driven IP-10 in THP-1 (in words): 3-mer oligos overnight. Further details: expressed in transfected cells; dose or concentration left out as unconfirmed. It counts as cell-based. How it is done: FIG. 34: THP-1 cells were pre-treated overnight with […] ASOs, prior to R848 stimulation for 7h. […] All ASO conditions are with R848 co-stimulation.
FIG. 35: THP-1 cells were pre-treated overnight with indicated concentrations of ASOs, prior to R848 stimulation for 7h. […] All ASO conditions are with R848 co-stimulation. SEM and two-way ANOVA with Tukey's multiple comparisons to 660-3b condition are shown.
FIG. 36: A, B, C) HEK-TLR8 cells expressing an NF-κB-luciferase reporter were pre-treated 40 min with […] oligos, prior to Motolimod stimulation (400 nM [B] or 600 nM [A and C] overnight). Data shown are averaged from 2 (B) independent or a single experiment (A and C), completed with 3 biological triplicate. The NF-κB-luciferase values are reported to the Motolimod condition. D) THP-1 cells were pre-treated overnight with […] 3-mer oligos, prior to R848 stimulation ([…]) for 7h. IP-10 levels were measured by ELISA. Data shown are averaged from a single experiment completed with 3 biological triplicate, reported to the R848 only condition. A-E) All oligo conditions are with Motolimod or R848 co-stimulation.
Human IP-10 and IFN-β levels were measured using supernatants from the different cultures and were quantified using IP-10 (BD Biosciences, #550926) or IFN-β (PBL assay science, #41415-1) ELISA kits respectively, according to the manufacturers' protocol. Tetramethylbenzidine substrate (Thermo Fisher Scientific) was used for quantification of the cytokines on a Fluostar OPTIMA (BMG LABTECH) plate-reader.

The text below walks through data of patent publication US20240384268A1, “Oligonucleotides” (Hudson Institute of Medical Research, priority 2021, published 2024).

In the oligonucleotide strings, read from the 5' end, every base follows the letter of its sugar. An asterisk marks phosphorothioate; unmarked linkages are phosphodiester. Other units and linkages are bracketed, terminal groups are in braces. A string of capitals states the bases alone. m = 2'-O-methyl

As to mCmUmU (antisense mC*mU*mU) [660-3], the “TLR8 potentiation in THP-1, short 2′OMe oligos (IP-10; in words)” value (from here on “TLR8 potentiation”) is “did not work”. For the same substance, the “TLR8 potentiation” value (listed as CUU) is “did not potentiate TLR8”.

“mGmAmU (mG*mA*mU) [GAU, 3-mer 2′OMe PS oligo]”: the “effect of 3-mer 2′OMe oligos on R848-driven IP-10 in THP-1 (in words)” value (“effect of 3-mer 2′OMe oligos” below) was “robustly the most potent”.

“mGmUmA (GUA; all 2'-O-methyl, backbone not given here; further chemistry not fully specified) [shortMut1-3b]”: the “effect of 3-mer 2′OMe oligos” value is reported as “robustly inhibitory”.

On to “mGmUmC (mG*mU*mC) [GUC, 3-mer 2′OMe PS oligo]”, for which the “effect of 3-mer 2′OMe oligos” value is recorded as “robustly inhibitory”.

For “mGmUmG (mG*mU*mG) [GUG, 3-mer 2′OMe PS oligo]”, the “effect of 3-mer 2′OMe oligos” value is on record as “robustly inhibitory”.

As for “mGmUmU (mG*mU*mU) [GUU, 3-mer 2′OMe PS oligo]”, the “effect of 3-mer 2′OMe oligos” value was “robustly inhibitory”.

Take mUmCmG (antisense mU*mC*mG) [660-3b]: the “TLR8 potentiation” value is on record as “significantly potentiated TLR8 sensing”.
